The values that follow come from US8895587B2, “Insecticidal compounds based on arylthioacetamide derivatives” (Syngenta Participations AG, priority 2011, dated 2014).

Format in all cases: in vivo
Assay [1] deals with Plutella xylostella. The assay is described as follows: Plutella xylostella (diamond back moth) larval test on artificial diet. As to conditions: 144 h; for pest or weed control at 0.8 ppm: application rate 0.8 ppm; for pest or weed control at 3 ppm: application rate 3 ppm; for pest or weed control at 0.2 ppm: application rate 0.2 ppm.
The subject of assay [2] is Diabrotica balteata. As to the kind of experiment: Diabrotica balteata (corn root worm) larval test on artificial diet. The note with it: 120 h, read-out: Control/% Diabrotica balteata Corn rootworm; for pest or weed control at 12 ppm: application rate 12 ppm; for pest or weed control at 50 ppm: application rate 50 ppm; for pest or weed control at 0.8 ppm: application rate 0.8 ppm; for pest or weed control at 3 ppm: application rate 3 ppm.

The subject of assay [3] is Heliothis virescens. As to the kind of experiment: Heliothis virescens (tobacco budworm) egg/larval test on artificial diet. The note with it: 96 h; for pest or weed control at 0.8 ppm: application rate 0.8 ppm; for pest or weed control at 3 ppm: application rate 3 ppm; for pest or weed control at 0.2 ppm: application rate 0.2 ppm.
For assay [4], the system named is Myzus persicae. The assay is described as follows: Myzus persicae (green peach aphid), systemic test. The note with it: 144 h, application rate 12.5 ppm, roots of pea seedlings in test solution, 6 days. The text has this: Myzus persicae (Green peach aphid), systemic test: Roots of pea seedlings, infested with an aphid population of mixed ages, are placed directly in the test solutions at an application rate of 12.5 ppm. 6 days after introduction, samples are checked for mortality and special effects on the plant. The following compounds gave at least 80% control of Myzus persicae: […]

Assay [5] concerns Spodoptera littoralis. As to the kind of experiment: Spodoptera littoralis (Egyptian cotton leafworm) leaf disc test. As to conditions: foliar, 72 h, application rate 200 ppm, cotton leaf discs, L1 larvae, mortality, feeding behavior, growth regulation 3 DAT. An excerpt:
Spodoptera littoralis (Egyptian Cotton Leafworm): Cotton leaf discs were placed on agar in a 24-well microtiter plate and sprayed with test solutions at an application rate of 200 ppm. After drying, the leaf discs were infested with 5 L1 larvae. The samples were checked for mortality, feeding behavior, and growth regulation 3 days after treatment (DAT).

In assay [6] the test system is Heliothis virescens. As to the kind of experiment: Heliothis virescens (tobacco budworm) egg/larval test on artificial diet. The note with it: 96 h, application rate 200 ppm (concentration in well 18 ppm), eggs on artificial diet, 4 days. Here is the method: Eggs (0-24 h old) were placed in 24-well microtiter plate on artificial diet and treated with test solutions at an application rate of 200 ppm (concentration in well 18 ppm) by pipetting. After an incubation period of 4 days, samples were checked for egg mortality, larval mortality, and growth regulation.

Assay [7] relates to Tetranychus urticae. The assay is described as follows: Tetranychus urticae (two-spotted spider mite) leaf disc test. As to conditions: foliar, 192 h, application rate 200 ppm, bean leaf discs, 8 days. An excerpt:
Bean leaf discs on agar in 24-well microtiter plates were sprayed with test solutions at an application rate of 200 ppm. After drying, the leaf discs are infested with mite populations of mixed ages. 8 days later, discs are checked for egg mortality, larval mortality, and adult mortality.

For assay [8], the system named is Diabrotica balteata. As to the kind of experiment: Diabrotica balteata (corn root worm) larval test on artificial diet. The note with it: 120 h, application rate 200 ppm (concentration in well 18 ppm), L2 larvae on artificial diet, 5 days. Here is the method:
Diabrotica balteata (Corn Root Worm): A 24-well microtiter plate (MTP) with artificial diet was treated with test solutions at an application rate of 200 ppm (concentration in well 18 ppm) by pipetting. After drying, the MTP's were infested with L2 larvae (6-10 per well). After an incubation period of 5 days, samples were checked for larval mortality and growth regulation.

Assay [9] concerns Thrips tabaci. The assay is described as follows: Thrips tabaci (onion thrips) leaf disc test. The note with it: foliar, 168 h, application rate 200 ppm, sunflower leaf discs, 7 days. Here is the method: Sunflower leaf discs were placed on agar in a 24-well microtiter plate and sprayed with test solutions at an application rate of 200 ppm. After drying, the leaf discs were infested with a thrips population of mixed ages. After an incubation period of 7 days, samples were checked for mortality.

Assay [10] concerns Plutella xylostella. As to the kind of experiment: Plutella xylostella (diamond back moth) larval test on artificial diet. The note with it: 144 h, application rate 200 ppm (concentration in well 18 ppm), L2 larvae on artificial diet, 6 days. Here is the method:
24-well microtiter plate (MTP) with artificial diet was treated with test solutions at an application rate of 200 ppm (concentration in well 18 ppm) by pipetting. After drying, the MTP's were infested with L2 larvae (7-12 per well). After an incubation period of 6 days, samples were checked for larval mortality and growth regulation.

With `CSc1ccc(C2=NOC(c3cc(Cl)cc(Cl)c3)(C(F)(F)F)C2)cc1C` (centres unmarked) [Compound 1-020], in assay [1], the pest or weed control at 0.8 ppm stood at 0% and the pest or weed control at 3 ppm is 0%. For the same compound, the pest or weed control at 12 ppm in [2] was found to be 20%. Further, in assay [3], the pest or weed control at 0.8 ppm came out at 0% and the pest or weed control at 3 ppm worked out at 0%.
In assay [1], `Cc1cc(C2=NOC(c3cc(Cl)cc(Cl)c3)(C(F)(F)F)C2)ccc1S(C)(=O)=O` (centres unmarked) [Compound 1-021] had a pest or weed control at 0.8 ppm of 0% and a pest or weed control at 3 ppm of 0%. Moreover, in assay [2], the pest or weed control at 12 ppm was determined as 0% and the pest or weed control at 50 ppm is 90%. In [3], this compound showed a pest or weed control at 0.8 ppm of 0% and a pest or weed control at 3 ppm of 0%.
In the case of `O=C(CSc1ccc(C2=NOC(c3cc(Cl)cc(Cl)c3)(C(F)(F)F)C2)cc1)NCC(F)(F)F` (centres unmarked) [Compound 1-028], in [1], the pest or weed control at 0.2 ppm amounted to 0%, the pest or weed control at 0.8 ppm came to 0% and the pest or weed control at 3 ppm was determined as 50%. For the same compound, in [2], the pest or weed control at 0.8 ppm was 0%, the pest or weed control at 3 ppm was found to be 20% and the pest or weed control at 12 ppm is 100%. In [3], this compound yielded a pest or weed control at 0.2 ppm of 0%, a pest or weed control at 0.8 ppm of 0% and a pest or weed control at 3 ppm of 90%.
As for `O=C(C[S+]([O-])c1ccc(C2=NOC(c3cc(Cl)cc(Cl)c3)(C(F)(F)F)C2)cc1)NCC(F)(F)F` (centres unmarked) [Compound 1-029], in assay [1], the pest or weed control at 0.8 ppm is 0% and the pest or weed control at 3 ppm is 80%. In [2], the pest or weed control at 12 ppm came out at 50% and the pest or weed control at 50 ppm amounted to 100%. In [3], the pest or weed control at 0.8 ppm is 0% and the pest or weed control at 3 ppm is 80%.
Turning to `O=C(CS(=O)(=O)c1ccc(C2=NOC(c3cc(Cl)cc(Cl)c3)(C(F)(F)F)C2)cc1)NCC(F)(F)F` (centres unmarked) [Compound 1-030], in assay [1], the pest or weed control at 0.8 ppm was found to be 0% and the pest or weed control at 3 ppm worked out at 0%. In assay [2], the pest or weed control at 12 ppm was determined as 50% and the pest or weed control at 50 ppm was 100%. Also, in assay [3], the pest or weed control at 0.8 ppm amounted to 0% and the pest or weed control at 3 ppm amounted to 80%.
Regarding `Cc1cc(C2=NOC(c3cc(Cl)cc(Cl)c3)(C(F)(F)F)C2)ccc1SCC(=O)NCC(F)(F)F` (centres unmarked) [Compound A49, 2-{2-Methyl-4-[5-(3,5-Dichloro-phenyl)-5-trifluoromethyl-4,5-dihydro-isoxazol-3-yl]-phenylsulfanyl}-N-(2,2,2-trifluoro-ethyl)-acetamide], the pest or weed control at 0.8 ppm in [1] and in [3] was 80% throughout. The pest or weed control at 3 ppm in assay [1], in assay [2] and in assay [3] was 100% each time. Besides, the pest or weed control at 12.5 ppm in assay [4] was at least 80%. Also, the pest or weed control at 12 ppm in assay [2] came out at 100%. Besides, the pest or weed control at 200 ppm in assay [5], in assay [6], in assay [7], in assay [8], in assay [9] and in assay [10] was at least 80% each time.
For `Cc1cc(C2=NOC(c3cc(Cl)cc(Cl)c3)(C(F)(F)F)C2)ccc1[S+]([O-])CC(=O)NCC(F)(F)F` (centres unmarked) [Compound A50, 2-{4-[5-(3,5-Dichloro-phenyl)-5-trifluoromethyl-4,5-dihydro-isoxazol-3-yl]-2-methyl-benzenesulfinyl}-N-(2,2,2-trifluoro-ethyl)-acetamide], the pest or weed control at 0.8 ppm in assay [1] and in assay [3] was 80% throughout. Also, the values for the pest or weed control at 3 ppm in assay [1], in [2] and in [3] were 100%, 75% and 80%, respectively. In assay [4], this compound registered a pest or weed control at 12.5 ppm of at least 80%. In addition, the pest or weed control at 12 ppm in assay [2] was determined as 100%. Further, the pest or weed control at 50 ppm in [2] was determined as 100%. Also, the pest or weed control at 200 ppm in assay [5], in [6], in assay [7], in [8], in [9] and in assay [10] was at least 80% each time.
In the case of `Cc1cc(C2=NOC(c3cc(Cl)cc(Cl)c3)(C(F)(F)F)C2)ccc1S(=O)(=O)CC(=O)NCC(F)(F)F` (centres unmarked) [Compound A51, 2-{4-[5-(3,5-Dichloro-phenyl)-5-trifluoromethyl-4,5-dihydro-isoxazol-3-yl]-2-methyl-benzenesulfonyl}-N-(2,2,2-trifluoro-ethyl)-acetamide], the pest or weed control at 0.8 ppm in assay [1] and in assay [3] was 80% each time. The pest or weed control at 3 ppm in [1] came out at 100%; in assay [3] it was 80%. This compound also came in with a pest or weed control at 12.5 ppm in [4] of at least 80%. In addition, in assay [2], the pest or weed control at 12 ppm came to 100%. Also, the pest or weed control at 50 ppm in [2] came to 100%. For the same compound, the pest or weed control at 200 ppm in assay [5], in [6], in assay [7], in assay [8], in [9] and in assay [10] was at least 80% in each case.
In the case of `Cc1cc(C2=NO[C@@](c3cc(Cl)cc(Cl)c3)(C(F)(F)F)C2)ccc1SCC(=O)NCC(F)(F)F` [Compound C1, 2-{4-[(S)-5-(3,5-Dichloro-phenyl)-5-trifluoromethyl-4,5-dihydro-isoxazol-3-yl]-2-methyl-phenylsulfanyl}-N-(2,2,2-trifluoro-ethyl)-acetamide], the pest or weed control at 0.2 ppm in [1] and in [3] was 80% throughout. Besides, the pest or weed control at 0.8 ppm is 100% in [1], 80% in assay [2] and 80% in assay [3]. Besides, the pest or weed control at 3 ppm in assay [1], in [2] and in assay [3] was 100% in each case. For the same compound, the pest or weed control at 12.5 ppm in [4] is at least 80%. Besides, in assay [2], the pest or weed control at 12 ppm was 100%. The pest or weed control at 200 ppm in [6], in [7], in assay [9] and in assay [10] was at least 80% throughout.
